# Measured values from patent publication US7855076B2, “Use of discoidin domain receptor 1 (DDR1) and agents that affect the DDR1/collagen pathway” (The United States of America as represented by the …, priority 2002, dated 2010).
# Experiments:
# Assay type in all cases: cell-based, human
# DDR1 mRNA = DDR1 mRNA expression in PBMC by Northern blotting; settings: 8 hours, TNF-α 5 ng/ml, IL-1β 10 ng/ml, IFN-γ 50 U/ml, GM-CSF 10 ng/ml, LPS 1 μg/ml, PHA 5 μg/ml
# Procedure: PMN and PBMC were maintained at a density of 5×10^6 cells/ml in the complete medium in six-well tissue culture cluster (Coster, Cambridge, Mass.; 3 ml/well). Total RNA was extracted from each culture by using TRIZOL® Reagent. PolyA mRNA was purified on Oligotex columns (Qiagen, Valencia, Calif.). Northern blot analysis was performed as described (Yoshimura, J. Immunol. 150:5025, 1993), except that ULTRAhyb (Ambion) was used. A human DDR1 cDNA (757-bp) was obtained by PCR from a U-105 human glioblastoma cell line cDNA library and was ligated into the EcoRI/HindIII site of the pBluescript (Stratagene, La Jolla, Calif.). The sense primer was 5′-[…]-3′ (SEQ ID NO: 2; corresponding to residues between 68 and 87 in the nucleotide sequence of the trkE cDNA, GenBank accession number X74979) and the antisense primer was 5′-[…]-3′ (SEQ ID NO: 3; corresponding to residues between 805 and 824 in the nucleotide sequence of the trkE cDNA).
# Freshly isolated PBMC expressed only a low level of DDR1 mRNA. The expression level was increased about eightfold when the cells were incubated in either RPMI 1640 or RPMI 1640 containing 10% FCS.
# DDR1 protein = DDR1 protein expression in leukocytes by immunoprecipitation and Western blotting; settings: PBMC; TNF-α 5 ng/ml or GM-CSF 10 ng/ml, 36 hours
# Procedure: For Western blot analysis, cell lysates were prepared from freshly isolated PBMC, PBMC incubated overnight in RPMI 1640 containing 10% FCS, and MCF-7 cells. Cells were lysed on ice for 20 minutes in a buffer containing 50 mM Hepes, 150 mM NaCl, 1% Triton X-100, 10% glycerol, 10 mM NaF, 1 mM ethylenediamine tetraacetic acid, […], 1 mg/ml leupeptin, 1 mM phenylmethylsulfonyl fluoride, 1 mg/ml aprotinin, and 1 mg/ml pepstatin A. The lysates were spun, and the supernatants were collected. The samples were incubated with approximately 20 μl packed volume of PGS for 1 hour at 4° C. After centrifugation, supernatants were collected, mixed with 1 μg/ml normal rabbit IgG or polyclonal anti-human DDR1 IgG, and incubated for 1 hour at 4° C. PGS (20 μl) was then added and incubated for another 1 hour. IgG-coupled PGS was washed with the buffer containing 50 mM Hepes, 150 mM NaCl, 0.1% Triton X-100, 10% glycerol buffer three times, and 20 μl double-strength sample buffer (20% glycerol, 6% sodium dodecylsulfate (SDS), 10% 2-mercaptoethanol) was added. The samples were boiled for 10, minutes. Eluted proteins were analyzed on 7.5% polyacrylamide gels by SDS polyacrylamide gel electrophoresis (SDS-PAGE) and transferred electrophoretically to nitrocellulose membranes (Amersham, Arlington Heights, Ill.) at 200 mA for 2 hours by a semi-dry system. The membranes were incubated with polyclonal anti-human DDR1 or anti-phosphotyrosine IgG, followed by sheep anti-mouse IgG coupled with horseradish peroxidase (Amersham). Peroxidase activity was visualized by the Enhanced Chemiluminescence Detection System (Amersham).
# There was no detectable DDR1 protein in freshly isolated PBMC. DDR1 protein was detected clearly after overnight incubation in RPMI 1640 containing 10% FCS. In order to study the kinetics of DDR1 protein expression, PBMC were incubated with or withour addition of TNF-α (5 ng/ml), or GM-CSF (10 ng/ml) for 36 hours and cell lysates were prepared. Cell lysates were subjected to immunoprecipitation with anti-DDR1 IgG or control IgG. […]
# DDR1 = assay: Cell-surface DDR1 expression on PMN by flow cytometry
# Procedure: PMN were incubated in presence of IFN-γ or GM-CSF for 24 hours and the expression of cell-surface DDR1 was measured by flow cytometry using an antibody raised against the extracellular domain of the receptor. One hundred thousand cells were suspended in 50 μl of cold PBS containing 0.1% NaN3, […] BSA and 200 μg/ml human IgG in a Falcon 2052, tube, and incubated for 10 minutes on ice. One μg of anti-DDR1 rabbit polyclonal antibody raised aginst the N-terminus of DDR1 (Transgenic, Inc., Kumamoto, Japan), or control mouse IgG was added to each tube and the cells were incubated for another 15 minutes on ice. The cells were washed with PBS, and then incubated with 1 μg of FITC-conjugated goat anti-mouse IgG for 15 minutes on ice. At the end of incubation, PI was added to each tube (100 μM). The cells were washed by PBS, and subsequently analyzed by using a FACS scan (Becton Dickinson). Dead cells, determined by the incorporation of PI, were gated out. Results were processed by using the Cellquest software (Becton Dickinson).
# PMN = assay: MCP-1 release by PMN (neutrophils), ELISA
# Procedure: Human PMN and peripheral blood mononuclear cells (PBMC) were obtained from heparinized blood from human donors (10 units of heparin per ml of blood). One volume of 5% dextran (T-500 Pharmacia, Piscataway, N.J.) in phosphate buffered saline (PBS) was added to three volumes of blood in 50 ml polypropylene tubes. After a 40 minute incubation at room temperature, the leukocyte-rich plasma layer was removed and overlaid onto Lymphoprep in 50 ml tubes and the tubes were centrifuged at 800×g for 20 minutes at room temperature. PMN were separated from erythrocytes by lysis in 0.2% NaCl, washed in complete medium three times at 4° C. and resuspended in complete medium. PBMC contained in the PMN preparations obtained by this method were less than 0.5% by morphologic examination. Cell viability was higher than 98% by trypan blue staining.
# A panel of cytokines was previously tested for their ability to induce MCP-1 production in PMN and it was reported that TNF-α and IFN-γ could cooperate to induce a high level of MCP-1 production (Yamashiro et al., J. Leukoc. Biol. 69:698, 2001). […] The majority of MCP-1 was released between 24 hours and 48 hours, showing a delayed kinetics of MCP-1 release. […] The effect of IFN-γ was dose-dependent.
# To confirm that activation of DDR1 was responsible for the increased release of MCP-1 by PMN treated with IFN-γ and collagen, 513 anti-DDR1 Ab was used instead of collagen. The concentrations of MCP-1 were measured in the Lymphokine Testing Laboratory, Clinical Services Program, SAIC-Frederick (Frederick, Md.) with an ELISA kit (R&D Systems) specific for human MCP-1.
substance,measurement,setting,value
TNF-α,level of DDR1 mRNA expression,DDR1 mRNA,further augmented
same,level of DDR1 protein expression,DDR1 protein,increased
same,IFNγ-induced DDR1 expression,DDR1,almost completely inhibited
collagen,effect on MCP-1 production,PMN; GM-CSF-treated PMN,no significant effect
same,effect on MCP-1 production,PMN; PMN treated with TNF-α plus IFN-γ or INF-α plus IFN-γ plus GM-CSF,negative effect
same,effect on MCP-1 production,"PMN; PMN, no cytokine or TNF-α added",no significant effect
